Assay results from US12036243B2, “BCMA CAR-T cells with enhanced activities” (Allogene Therapeutics, Inc., priority 2020, dated 2024).

Columns and labels:
[1] = system: BCMA CAR T cells, with or without the CACCR; experiment: Rituximab-mediated CAR T cell depletion in vivo (MM.1S-Luc-GFP-bearing mice); parameters: species or system NSG mice
Protocol: Next, we tested the effect of rituximab on decreasing BCMA CAR T cells, with or without the CACCR, in vivo. […] Rituximab (10 mg/kg) or PBS vehicle control was dosed intraperitoneally starting on the day of CAR T cell dosing and then daily for 4 additional days (n=9 or 10 per group).

[2] = system: BCMA CAR T cells with or without the CACCR; experiment: Rituximab complement-dependent cytotoxicity assay; assay type: cell-based; details: both types of BCMA CAR T cells
Description: (§1) To minimize any potential safety concerns in clinical development, the BCMA CAR construct was designed to incorporate two rituximab mimotopes, which would sensitize the BCMA CAR T cells to rituximab-mediated depletion. We next tested the effects of rituximab on the BCMA CAR T cells with or without the CACCR.

[3] = system: BCMA CAR T cells with or without the CACCR; experiment: Rituximab NK cell-mediated antibody-dependent cellular cytotoxicity assay; assay type: cell-based; details: both types of BCMA CAR T cells
Description: as §1

[4] = system: BCMA CAR T cells with or without the CACCR
Protocol: We tested in an in vitro cell killing assay the effect of 150 nM dasatinib on the activities of the BCMA CAR T cells with or without the CACCR.

Compound | tumor burden following rituximab-mediated CAR T cell depletion ([1]; rituximab 10 mg/kg i.p.) | CAR T cell counts in peripheral blood ([1]; rituximab 10 mg/kg i.p. daily for 5 days, 7 days post-CAR T cell dosing) | viable CAR T cells [2] | viable CAR T cells [3] | cytotoxicity of BCMA CAR T cells [4]
rituximab | compromised anti-tumor efficacy | efficient and complete elimination of both CAR T cells | significantly decreased viable CAR T cells in a dose-responsive manner | significantly decreased viable CAR T cells in a dose-responsive manner | 
Cc1nc(Nc2ncc(C(=O)Nc3c(C)cccc3Cl)s2)cc(N2CCN(CCO)CC2)n1 [dasatinib] |  |  |  |  | abolished the cytotoxicity
